Measured values as given in ChEMBL document CHEMBL1201862, “PubChem BioAssay data set” (2004).
The source made the active and inactive calls.

Assays:
[1] = A High Throughput Confirmatory Assay used to Identify Novel Compounds that Inhibit Mycobacterium Tuberculosis in the absence of Glycerol.; assay type: functional
[2] = viability of uninfected HEp-2 cells – cell-based, HTS, cytotoxicity control for RSV inhibitor project, dose response (AID 2410); assay type: functional; conditions: human respiratory syncytial virus
[3] = biological target: 5-hydroxytryptamine receptor 1E (Homo sapiens, UniProt P28566); experiment: Counterscreen assay for S1P3 antagonists: Dose response cell-based high throughput screening assay to identify antagonists of the 5-Hydroxytryptamine Receptor Subtype 1E (5HT1E). [Related pubchem assays: 1429, 485 ]; assay type: functional
5-hydroxytryptamine receptor 1E, sequence (P28566 whole entry): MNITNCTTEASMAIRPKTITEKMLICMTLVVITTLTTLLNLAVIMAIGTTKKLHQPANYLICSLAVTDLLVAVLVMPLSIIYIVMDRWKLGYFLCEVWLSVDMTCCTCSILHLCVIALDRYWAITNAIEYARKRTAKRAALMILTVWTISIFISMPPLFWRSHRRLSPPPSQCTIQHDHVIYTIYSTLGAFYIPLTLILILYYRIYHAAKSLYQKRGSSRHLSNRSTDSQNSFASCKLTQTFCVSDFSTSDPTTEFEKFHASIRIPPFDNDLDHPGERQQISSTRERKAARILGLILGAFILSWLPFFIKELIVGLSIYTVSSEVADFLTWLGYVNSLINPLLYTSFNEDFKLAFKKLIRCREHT

[4] = biological target: Sphingosine 1-phosphate receptor 3 (Homo sapiens, UniProt Q99500); experiment: Dose response cell-based high throughput screening assay for antagonists of the Sphingosine 1-Phosphate Receptor 3 (S1P3). [Related pubchem assays: 1429, 485 ]; assay type: functional
Sphingosine 1-phosphate receptor 3, sequence (Q99500 whole entry): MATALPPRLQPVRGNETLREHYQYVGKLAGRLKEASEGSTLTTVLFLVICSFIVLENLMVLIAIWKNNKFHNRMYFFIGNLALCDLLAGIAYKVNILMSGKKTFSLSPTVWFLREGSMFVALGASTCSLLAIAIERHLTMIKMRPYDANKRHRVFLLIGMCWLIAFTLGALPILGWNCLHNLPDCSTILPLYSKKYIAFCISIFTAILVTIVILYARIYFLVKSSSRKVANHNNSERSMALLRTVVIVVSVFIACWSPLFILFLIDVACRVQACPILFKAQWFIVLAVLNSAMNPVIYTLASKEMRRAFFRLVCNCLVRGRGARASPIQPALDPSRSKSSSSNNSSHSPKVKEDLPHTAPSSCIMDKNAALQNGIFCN

[5] = biological target: Mannose-6-phosphate isomerase (Homo sapiens, UniProt P34949); experiment: MPI enzyme activity inhibition – biochemical, fluorescence intensity, coupled assay, primary screen (AID 1209)
Mannose-6-phosphate isomerase, sequence (P34949 whole entry): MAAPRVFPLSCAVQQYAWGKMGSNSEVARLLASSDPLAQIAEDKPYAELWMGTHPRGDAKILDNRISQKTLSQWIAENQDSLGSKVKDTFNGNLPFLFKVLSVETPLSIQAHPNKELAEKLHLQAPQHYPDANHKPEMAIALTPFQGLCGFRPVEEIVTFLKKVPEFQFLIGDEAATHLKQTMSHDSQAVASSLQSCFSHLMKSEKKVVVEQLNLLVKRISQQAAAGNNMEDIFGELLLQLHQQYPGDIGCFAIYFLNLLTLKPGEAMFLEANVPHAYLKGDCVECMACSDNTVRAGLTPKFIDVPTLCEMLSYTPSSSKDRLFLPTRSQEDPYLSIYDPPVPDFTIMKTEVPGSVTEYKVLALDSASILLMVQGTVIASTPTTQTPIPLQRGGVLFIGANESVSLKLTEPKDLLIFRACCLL

[6] = test system: Vero; experiment: viability of Vero cells under compound – cytotoxicity control for flavivirus capping enzyme inhibitors (AID 588742); assay type: functional; conditions: Chlorocebus sabaeus
[7] = biological target: NS3 (Hepatitis C virus, UniProt A3EZJ3); experiment: PubChem AID 2173; design: species or system Hepacivirus hominis
NS3, sequence (A3EZJ3 whole entry): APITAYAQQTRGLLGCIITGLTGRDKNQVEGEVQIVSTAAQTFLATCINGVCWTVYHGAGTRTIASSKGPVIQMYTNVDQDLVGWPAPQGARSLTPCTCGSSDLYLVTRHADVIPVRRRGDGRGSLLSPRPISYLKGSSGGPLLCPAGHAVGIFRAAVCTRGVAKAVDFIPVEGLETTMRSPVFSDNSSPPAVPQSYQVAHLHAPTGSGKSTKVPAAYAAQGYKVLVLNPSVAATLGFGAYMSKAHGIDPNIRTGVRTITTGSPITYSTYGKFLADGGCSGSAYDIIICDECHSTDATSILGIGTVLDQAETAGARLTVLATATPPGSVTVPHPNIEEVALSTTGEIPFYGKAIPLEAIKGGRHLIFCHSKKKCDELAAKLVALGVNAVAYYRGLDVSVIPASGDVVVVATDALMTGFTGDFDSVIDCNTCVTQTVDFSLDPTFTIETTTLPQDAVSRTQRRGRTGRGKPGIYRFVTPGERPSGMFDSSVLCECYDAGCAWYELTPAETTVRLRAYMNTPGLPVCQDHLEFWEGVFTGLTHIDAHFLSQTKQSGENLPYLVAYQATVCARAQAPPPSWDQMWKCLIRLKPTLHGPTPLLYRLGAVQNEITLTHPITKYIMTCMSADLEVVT

[8] = biological target: Induced myeloid leukemia cell differentiation protein Mcl-1 (Homo sapiens, UniProt Q07820); assay type: functional
Induced myeloid leukemia cell differentiation protein Mcl-1, sequence (Q07820 whole entry): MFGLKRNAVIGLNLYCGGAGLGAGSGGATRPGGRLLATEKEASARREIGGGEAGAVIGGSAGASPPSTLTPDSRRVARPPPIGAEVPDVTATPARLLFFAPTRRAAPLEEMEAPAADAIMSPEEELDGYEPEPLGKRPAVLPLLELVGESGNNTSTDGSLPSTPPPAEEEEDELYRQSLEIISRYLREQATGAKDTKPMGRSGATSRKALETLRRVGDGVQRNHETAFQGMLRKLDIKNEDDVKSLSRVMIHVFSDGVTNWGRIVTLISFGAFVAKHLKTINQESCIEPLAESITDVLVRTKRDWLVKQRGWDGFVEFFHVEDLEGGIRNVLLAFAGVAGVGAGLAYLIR

[9] = Luminescence-based counterscreen assay for KLF5 inhibitors: dose response cell-based high throughput screening assay to identify cytotoxic compounds using the IEC-6 intestinal epithelial cell line. [Related pubchem assays: 1700 (Primary screen.), 1834 (Confirmation screen.), 1858 (Summary AID.), 1905 (Counterscreen.)]; assay type: functional
[10] = HEK-293T viability loss after treatment – luminescence, T-cell screen hits, cytotoxicity control for TCR NF-kB inhibitor project, dose response (AID 489026); assay type: functional, cell-based;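 also: cells exposed to compound about 14 hours before the viability readout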
[11] = reduction of Shn3 3'UTR-driven luciferase in osteoblasts – cell-based, Clone20 osteoblasts, firefly luciferase, cherry-picked, dose response (AID 624132); assay type: functional;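 also: firefly luciferase luminescence from reporter carrying the Shn3 3'UTR in osteoblasts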
[12] = loss of viability in HepG2 cells – cell-based, CellTiter-Glo, cherry-picked, cytotoxicity control for Shn3 inhibitor project, dose response (AID 624134); assay type: functional
[13] = biological target: T1, Protein skinhead-1 (Caenorhabditis elegans, UniProt P34707); assay type: functional
T1 sequence (P34707 whole entry): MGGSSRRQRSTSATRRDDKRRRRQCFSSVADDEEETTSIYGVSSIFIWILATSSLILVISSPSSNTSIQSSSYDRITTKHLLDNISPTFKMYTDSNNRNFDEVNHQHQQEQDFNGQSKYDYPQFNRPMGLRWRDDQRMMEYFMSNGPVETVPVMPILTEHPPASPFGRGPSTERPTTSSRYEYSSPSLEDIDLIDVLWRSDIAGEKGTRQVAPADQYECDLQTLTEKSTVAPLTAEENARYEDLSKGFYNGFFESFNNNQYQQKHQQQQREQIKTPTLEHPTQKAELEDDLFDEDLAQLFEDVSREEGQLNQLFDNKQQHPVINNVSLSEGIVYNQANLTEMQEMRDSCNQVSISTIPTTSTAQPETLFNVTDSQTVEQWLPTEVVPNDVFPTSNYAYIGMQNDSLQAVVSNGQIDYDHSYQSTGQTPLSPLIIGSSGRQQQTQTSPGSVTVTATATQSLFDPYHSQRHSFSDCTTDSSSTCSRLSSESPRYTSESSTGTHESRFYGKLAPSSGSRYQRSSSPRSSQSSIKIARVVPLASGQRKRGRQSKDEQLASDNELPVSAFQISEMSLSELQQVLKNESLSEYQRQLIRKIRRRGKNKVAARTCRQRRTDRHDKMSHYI

[14] = Shn3 3'UTR reporter signal decrease – cell-based, Clone20 osteoblasts, firefly luciferase, cherry-pick, set 2, Schnurri-3 inhibitor project, dose response (AID 720490); assay type: functional;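 also: actives lower the luminescence signal as inhibitors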
[15] = test system: BJ; experiment: BJ-TERT fibroblast viability loss – cell-based, RAS-independent, luminescence, dose response (AID 1933); assay type: functional; conditions: Homo sapiens
[16] = biological target: T2, Heat shock factor protein 1 (Mus musculus, UniProt P38532); experiment: decrease of HSF1-responsive luciferase luminescence – cell-based, NIH3T3, dose retest, confirmation (AID 2382); assay type: functional;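 also: NIH3T3 fibroblasts with HSF1-driven luciferase reporter stressed by proteasome inhibitor MG132; luminescence from HSF1-driven luciferase expression after 8 hours of MG132 stress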
T2 sequence (P38532 whole entry): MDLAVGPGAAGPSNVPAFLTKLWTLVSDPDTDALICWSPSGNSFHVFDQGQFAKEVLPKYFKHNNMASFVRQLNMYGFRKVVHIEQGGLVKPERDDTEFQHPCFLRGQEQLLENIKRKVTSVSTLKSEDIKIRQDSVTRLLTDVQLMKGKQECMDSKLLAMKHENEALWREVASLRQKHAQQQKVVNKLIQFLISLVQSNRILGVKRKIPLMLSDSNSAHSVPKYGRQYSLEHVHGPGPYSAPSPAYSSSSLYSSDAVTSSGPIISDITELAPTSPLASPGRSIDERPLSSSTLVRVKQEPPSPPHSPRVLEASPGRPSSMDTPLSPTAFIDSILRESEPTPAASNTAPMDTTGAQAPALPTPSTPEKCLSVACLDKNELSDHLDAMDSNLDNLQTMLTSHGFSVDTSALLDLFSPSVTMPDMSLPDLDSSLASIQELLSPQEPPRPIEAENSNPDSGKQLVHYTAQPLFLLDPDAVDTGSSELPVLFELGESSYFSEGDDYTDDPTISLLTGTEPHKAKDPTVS

[17] = test system: BJ; experiment: cells; assay type: functional, cell-based; conditions: Homo sapiens
[18] = biological target: T3, Sphingosine 1-phosphate receptor 4 (Homo sapiens, UniProt O95977); experiment: Fluorescence dose response cell-based high throughput screening assay for antagonists of the Sphingosine 1-Phosphate Receptor 4 (S1P4). [Related pubchem assays: 1524 (Confirmation in triplicates.), 1510 (Primary screen.)]; assay type: functional
T3 sequence (O95977 whole entry): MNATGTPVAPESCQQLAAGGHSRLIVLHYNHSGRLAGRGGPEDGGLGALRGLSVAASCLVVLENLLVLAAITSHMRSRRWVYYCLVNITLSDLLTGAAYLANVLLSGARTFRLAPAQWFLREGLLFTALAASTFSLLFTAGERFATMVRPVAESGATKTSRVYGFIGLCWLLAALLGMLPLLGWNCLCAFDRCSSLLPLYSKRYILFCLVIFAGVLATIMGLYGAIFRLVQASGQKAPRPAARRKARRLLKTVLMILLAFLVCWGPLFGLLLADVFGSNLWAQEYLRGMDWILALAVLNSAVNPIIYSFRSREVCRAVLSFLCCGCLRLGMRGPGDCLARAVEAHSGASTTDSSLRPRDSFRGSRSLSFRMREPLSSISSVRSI

[19] = test system: BJ; experiment: BJ-TERT-LT-ST fibroblast viability loss – cell-based, RAS-independent, luminescence, dose response (AID 1935); assay type: functional; conditions: Homo sapiens;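 also: BJ fibroblasts immortalized with TERT plus LT and ST oncogenes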
[20] = DRD fibroblast viability loss – cell-based, non-viral oncogenic, luminescence, dose response (AID 1934); assay type: functional; conditions: Homo sapiens
[21] = biological target: Sphingosine 1-phosphate receptor 1 (Homo sapiens, UniProt P21453); assay type: functional;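 also: Tango beta-arrestin reporter U2OS cells stimulated with S1P near its EC80; inhibitor potency meaning antagonism of receptor activation by the natural agonist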
Sphingosine 1-phosphate receptor 1, sequence (P21453 whole entry): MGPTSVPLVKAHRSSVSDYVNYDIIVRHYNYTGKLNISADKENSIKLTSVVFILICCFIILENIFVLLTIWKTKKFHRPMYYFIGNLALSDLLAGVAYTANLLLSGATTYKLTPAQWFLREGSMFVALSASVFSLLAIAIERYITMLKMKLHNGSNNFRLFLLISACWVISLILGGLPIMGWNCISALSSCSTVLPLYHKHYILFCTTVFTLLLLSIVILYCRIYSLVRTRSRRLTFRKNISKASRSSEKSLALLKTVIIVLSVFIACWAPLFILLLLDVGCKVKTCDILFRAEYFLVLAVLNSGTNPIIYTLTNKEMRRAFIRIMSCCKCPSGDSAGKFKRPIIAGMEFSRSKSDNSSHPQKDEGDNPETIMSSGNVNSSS

[22] = biological target: G-protein coupled receptor 55 (Homo sapiens, UniProt Q9Y2T6); experiment: selective activators of receptor GPR55 – imaging, U2OS cells, beta-arrestin-GFP redistribution, primary screen (AID 1961); assay type: functional
G-protein coupled receptor 55, sequence (Q9Y2T6 whole entry): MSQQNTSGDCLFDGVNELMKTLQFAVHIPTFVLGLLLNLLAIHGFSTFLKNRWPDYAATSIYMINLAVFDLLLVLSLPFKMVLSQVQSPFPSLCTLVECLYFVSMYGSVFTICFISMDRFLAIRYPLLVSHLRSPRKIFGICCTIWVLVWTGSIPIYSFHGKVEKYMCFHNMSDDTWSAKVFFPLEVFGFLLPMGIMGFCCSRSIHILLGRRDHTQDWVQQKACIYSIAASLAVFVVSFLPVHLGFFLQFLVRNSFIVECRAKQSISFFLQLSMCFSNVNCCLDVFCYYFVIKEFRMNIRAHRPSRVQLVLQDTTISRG

[23] = THP-1 cell cytotoxicity, dose response, cytotoxicity control for non-replicating M. tuberculosis project (AID 489025); assay type: functional
[24] = test system: BJ; experiment: growth inhibition of engineered Ras-driven BJ cells – cell-based, alamar blue fluorescence, cherrypicked samples, dose response (AID 2631); assay type: functional; conditions: Homo sapiens;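 also: confirmatory dose-response assay in RAS-dependent BJ fibroblasts engineered with TERT, LT and ST, with cytotoxicity read by fluorescence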

## CC(C)OC(=O)c1ccc(NC(=S)NC(=O)c2cncc(Br)c2)cc1
[1]
  IC50: > 100 µM (active)

## CCCC[C@@H]1C[C@H]1[C@@H](NC(=O)c1cccs1)c1ccc(Cl)cc1
[2]
  CC50: 20.8 µM (active)
[3]
  IC50: 2.47 µM (active)
[4]
  IC50: 1.21 µM (active)

## CC(=O)Oc1ccc2c(=O)c(Oc3ccccc3)c(C)oc2c1OC(C)=O
[5]
  IC50: 44.8 µM (active)
[6]
  CC50: 38.1 µM (active)

## CNc1ccc(Br)cc(C(=O)/C=C/c2cccc(Cl)c2Cl)c1=O
[7]
  IC50: 5.02 µM (active)
[8]
  IC50: 2.63 µM (active)

## c1ccc(-c2noc(-c3ccc4ccccc4c3)n2)nc1
[9]
  IC50: 31.9 µM (not active)
[10]
  IC50: > 80 µM (inactive)
[11]
  AC50: 1.98 µM (active)
[12]
  AC50: 27.6 µM (active)
[13]
  IC50: > 100 µM (inactive)
[14]
  AC50: 5.85 µM (active)

## CC1(C)C[C@H]2C=C(C=O)[C@]3(C=O)C[C@]3(C)[C@H]2C1 [ISOVELLERAL]
[15]
  EC50: 5.11 µM (inconclusive)
[16]
  EC50: 530 nM (active)
[17]
  EC50: 5.77 µM (inconclusive)
[18]
  IC50: 253 nM (active)
[19]
  EC50: 3.8 µM (inconclusive)
[20]
  EC50: 5.29 µM (inconclusive)
[21]
  IC50: 4.96 µM (active)
[22]
  EC50: < 500 nM (active)
[23]
  CC50: 29.5 µM (active)
[10]
  IC50: > 80 µM (inactive)
[24]
  EC50: 575 nM (inconclusive)
